# Test results taken from the supplement of paper PMC11208160.
# Experiment: recombinant UMI read abundance after kanamycin selection (control-corrected) (log10(CPM+1)); higher = more efficient recombination; extreme values may be limits of the assay; sequences stand for … in AGTGCAGAGAAAATCGGCCAGTTTTCTCTGCCTGCAGTCCGCATGCCGTGGGACCCCTTGGGTTCTAACCTGTTGCCTAGATTTATGCAGCGGACTGCCTTTCTCCCAAAGTGATAAACCGG…AGGTTGGTTTCACT; site = the 11-nt donor
# Summary of the method: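 Reported values are log10(CPM+1) from a pooled Escherichia coli screen of donor and donor-binding-loop pairs for the IS621 bridge recombinase. Selection used IPTG (0.07 mM) plus kanamycin, against unselected plating, each in two replicates. Recombinant UMIs were amplified across the donor–target junction, sequenced, converted to CPM, averaged over replicates and scaled by control-derived factors.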
# 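Further: IS621 bridge recombinase in Escherichia coli cells against a fixed T5 target plasmid.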
row,Sequence,recombinant UMI read abundance (log10)
1,GCCGTATCATGGACCGGTTTTCCCGGTAATCCGTATTTGCA (site GCCGTATCTTG),2.22
2,GCCTAAACATGGACCGGTTTTCCCGGTAATCCGTATTTGGT (site GCCTAAACTAC),1.07
3,GCCTAATCATGGACCGGTTTTCCCGGTAATCCGTATTTGGC (site GCCTAATCTGC),0.963
4,GCCTATCCATGGACCGGTTTTCCCGGTAATCCGTATTTGAC (site GCCTATCCTGT),0
5,GCCTCGCCATGGACCGGTTTTCCCGGTAATCCGTATTTGGT (site GCCTCGCCTAC),0
6,GCCTCTACATGGACCGGTTTTCCCGGTAATCCGTATTTGCC (site GCCTCTACTGG),1.37
7,GCCTGGCCATGGACCGGTTTTCCCGGTAATCCGTATTTGCT (site GCCTGGCCTAG),0
8,GCCTGTGCATGGACCGGTTTTCCCGGTAATCCGTATTTGAC (site GCCTGTGCTGT),0.472
9,GCGAAAACATGGACCGGTTTTCCCGGTAATCCGTATTTGCA (site GCGAAAACTAG),0
10,GCGAAAACATGGACCGGTTTTCCCGGTAATCCGTATTTGCA (site GCGAAAACTCG),1.4
11,GCGAAAACATGGACCGGTTTTCCCGGTAATCCGTATTTGCA (site GCGAAAACTGG),0
12,GCGAAAACATGGACCGGTTTTCCCGGTAATCCGTATTTGCA (site GCGAAAACTTG),0.929
13,GCGAAATCATGGACCGGTTTTCCCGGTAATCCGTATTTGCT (site GCGAAAACTAG),0
14,GCGAAATCATGGACCGGTTTTCCCGGTAATCCGTATTTGCT (site GCGAAACCTAG),0
15,GCGAAATCATGGACCGGTTTTCCCGGTAATCCGTATTTGCT (site GCGAAAGCTAG),0
16,GCGAAATCATGGACCGGTTTTCCCGGTAATCCGTATTTGCT (site GCGAAATCTAG),1.62
17,GCGAACCCATGGACCGGTTTTCCCGGTAATCCGTATTTGAT (site GCGAACCCTAT),0.903
18,GCGAACCCATGGACCGGTTTTCCCGGTAATCCGTATTTGGG (site GCGAAACCTCC),0.013
19,GCGAACCCATGGACCGGTTTTCCCGGTAATCCGTATTTGGG (site GCGAACCCTCC),0.0373
20,GCGAACCCATGGACCGGTTTTCCCGGTAATCCGTATTTGGG (site GCGAAGCCTCC),0.00885
21,GCGAACCCATGGACCGGTTTTCCCGGTAATCCGTATTTGGG (site GCGAATCCTCC),0.0113
22,GCGAAGACATGGACCGGTTTTCCCGGTAATCCGTATTTGCT (site GCGAAAACTAG),1.01
23,GCGAAGACATGGACCGGTTTTCCCGGTAATCCGTATTTGCT (site GCGAACACTAG),0.298

row,Sequence,recombinant UMI read abundance (log10)
1,GCGAAGACATGGACCGGTTTTCCCGGTAATCCGTATTTGCT (site GCGAAGACTAG),1.92
2,GCGAAGACATGGACCGGTTTTCCCGGTAATCCGTATTTGCT (site GCGAATACTAG),0
3,GCGAAGACATGGACCGGTTTTCCCGGTAATCCGTATTTGGG (site GCGAAGACTCC),0.479
4,GCGAAGACATGGACCGGTTTTCCCGGTAATCCGTATTTGGG (site GCGAAGCCTCC),0
5,GCGAAGACATGGACCGGTTTTCCCGGTAATCCGTATTTGGG (site GCGAAGGCTCC),0.287
6,GCGAAGACATGGACCGGTTTTCCCGGTAATCCGTATTTGGG (site GCGAAGTCTCC),0.439
7,GCGAAGCCATGGACCGGTTTTCCCGGTAATCCGTATTTGGA (site GCGAAGCCTAC),0.00917
8,GCGAAGCCATGGACCGGTTTTCCCGGTAATCCGTATTTGGA (site GCGAAGCCTCC),0.00526
9,GCGAAGCCATGGACCGGTTTTCCCGGTAATCCGTATTTGGA (site GCGAAGCCTGC),0
10,GCGAAGCCATGGACCGGTTTTCCCGGTAATCCGTATTTGGA (site GCGAAGCCTTC),0.24
11,GCGAAGCCATGGACCGGTTTTCCCGGTAATCCGTATTTGGC (site GCGAAGCCTAC),0.0106
12,GCGAAGCCATGGACCGGTTTTCCCGGTAATCCGTATTTGGC (site GCGAAGCCTCC),0
13,GCGAAGCCATGGACCGGTTTTCCCGGTAATCCGTATTTGGC (site GCGAAGCCTGC),0
14,GCGAAGCCATGGACCGGTTTTCCCGGTAATCCGTATTTGGC (site GCGAAGCCTTC),0.664
15,GCGACACCATGGACCGGTTTTCCCGGTAATCCGTATTTGTC (site GCGACACCTGA),0
16,GCGACATCATGGACCGGTTTTCCCGGTAATCCGTATTTGTG (site GCGACATCTCA),1.78
17,GCGACCACATGGACCGGTTTTCCCGGTAATCCGTATTTGTT (site GCGACCACTAA),0.823
18,GCGACGCCATGGACCGGTTTTCCCGGTAATCCGTATTTGTA (site GCAACGCCTTA),0.542
19,GCGACGCCATGGACCGGTTTTCCCGGTAATCCGTATTTGTA (site GCCACGCCTTA),0.0222
20,GCGACGCCATGGACCGGTTTTCCCGGTAATCCGTATTTGTA (site GCGACGCCTTA),0.398
21,GCGACGCCATGGACCGGTTTTCCCGGTAATCCGTATTTGTA (site GCTACGCCTTA),0.019
22,GCGACGGCATGGACCGGTTTTCCCGGTAATCCGTATTTGTC (site GCGACGGCTGA),1.84
23,GCGAGCACATGGACCGGTTTTCCCGGTAATCCGTATTTGGC (site GCGAGCACTGC),3.27

row,Sequence,recombinant UMI read abundance (log10)
1,GCGAGCGCATGGACCGGTTTTCCCGGTAATCCGTATTTGTC (site GCGAGCGCTGA),2.69
2,GCGAGGCCATGGACCGGTTTTCCCGGTAATCCGTATTTGGG (site GCGAAGCCTCC),0.0133
3,GCGAGGCCATGGACCGGTTTTCCCGGTAATCCGTATTTGGG (site GCGACGCCTCC),0.022
4,GCGAGGCCATGGACCGGTTTTCCCGGTAATCCGTATTTGGG (site GCGAGGCCTCC),0.0117
5,GCGAGGCCATGGACCGGTTTTCCCGGTAATCCGTATTTGGG (site GCGATGCCTCC),0.0249
6,GCGAGGGCATGGACCGGTTTTCCCGGTAATCCGTATTTGCC (site GCGAGGGCTGG),2.23
7,GCGATAGCATGGACCGGTTTTCCCGGTAATCCGTATTTGTC (site GCGATAGCTGA),2.34
8,GCGCCCACATGGACCGGTTTTCCCGGTAATCCGTATTTGGA (site GCGCCCACTTC),0.365
9,GCGCGCACATGGACCGGTTTTCCCGGTAATCCGTATTTGCT (site GCGCGCACTAG),2.68
10,GCGCTGACATGGACCGGTTTTCCCGGTAATCCGTATTTGAG (site GCGCTGACTCT),1.62
11,GCGGAAACATGGACCGGTTTTCCCGGTAATCCGTATTTGCT (site GCGAAAACTAG),0
12,GCGGAAACATGGACCGGTTTTCCCGGTAATCCGTATTTGCT (site GCGCAAACTAG),1.5
13,GCGGAAACATGGACCGGTTTTCCCGGTAATCCGTATTTGCT (site GCGGAAACTAG),2.19
14,GCGGAAACATGGACCGGTTTTCCCGGTAATCCGTATTTGCT (site GCGTAAACTAG),1.86
15,GCGGAGGCATGGACCGGTTTTCCCGGTAATCCGTATTTGAA (site GCGGAGGCTTT),1.91
16,GCGGTAACATGGACCGGTTTTCCCGGTAATCCGTATTTGAT (site GCGGTAACTAT),2.46
17,GCGTAAACATGGACCGGTTTTCCCGGTAATCCGTATTTGCT (site GCGAAAACTAG),0
18,GCGTAAACATGGACCGGTTTTCCCGGTAATCCGTATTTGCT (site GCGCAAACTAG),1.82
19,GCGTAAACATGGACCGGTTTTCCCGGTAATCCGTATTTGCT (site GCGGAAACTAG),0.309
20,GCGTAAACATGGACCGGTTTTCCCGGTAATCCGTATTTGCT (site GCGTAAACTAG),2.73
21,GCGTACCCATGGACCGGTTTTCCCGGTAATCCGTATTTGAG (site GCGTACCCTCT),0.023
22,GCGTACTCATGGACCGGTTTTCCCGGTAATCCGTATTTGAC (site GCGTACTCTGT),3.44
